The target in data set [1] is JAK1 (Homo sapiens (Human), UniProt P23458). Nature of the data set: Biochemical JAK and Tyk2 Kinase Assays (LanthaScreen), JAK1. As to conditions: 25 μM ATP (Km), pIC50 converted to pKi by Cheng-Prusoff.
In data set [2] the test system is Caco-2 cell monolayer. In words: Caco-2 Permeation Assay. It is filed as in vitro ADME. Particulars: Papp, 5 μM compound; for Cacoverap Kp 10^−6 cm/sec: A→B in the presence of 25 μM verapamil (P-gp inhibitor); for Caco Kp 10^−6 cm/sec: apical to basal (A→B). An outline of the steps:
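Compound at 5 μM, in duplicate, crosses Caco-2 monolayers apical to basal over 120 min at 37 °C. This is run with and without 25 μM verapamil to test for P-gp efflux. Samples are quantified by LC-MS/MS, and Papp in cm/sec is calculated as dQ/(dt × area × concentration).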

The test system of data set [3] is IL-2 stimulated pSTAT5 in Tall-1 T cells. Nature of the data set: Inhibition of IL-2 Stimulated pSTAT5 in Tall-1 T Cells. It is filed as cell-based. As to conditions: Tall-1 human T cell line, IL-2 300 ng/mL, AlphaLisa; for IC50: read-out: Tall-1 IL2 pSTAT5 (pIC50) (converted). In a few lines: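 Cells preincubated with compound 1 hour at 37° C, then stimulated with IL-2 (final 300 ng/mL) for 30 minutes. After lysis, pSTAT5 (Tyr694/699) read by AlphaLISA luminescence. IC50 from inhibition curves, reported as pIC50 (mean±SD).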

Data set [4] concerns the target JAK3 (Homo sapiens (Human), UniProt P52333). In words: Biochemical JAK and Tyk2 Kinase Assays (LanthaScreen), JAK3. Particulars: 1.6 μM ATP (Km), pIC50 converted to pKi by Cheng-Prusoff; for Ki: read-out: JAK 3 (pKi) (converted).
The nature of data set [5]: physchem. As to conditions: thermodynamic from solid.
Procedure: (§5) Assay 6: Solubility Assay in Organic Excipients
(§6) The purpose of this assay was to quantify the solubility of test compounds in different organic excipients such as diisopropyl adipate, medium chain triglycerides (MCT), propylene glycol, and polyethylene glycol. The assay required 80 μL of 100 mM DMSO test compound solution per desired excipient in addition to 40 μL required to make a test standard.
(§7) The standard was created by diluting 40 μL of 100 mM DMSO compound stock solution into 160 μL of methanol and was shaken for five minutes to ensure solution uniformity. […] This 20,000 μM solution was run on an Agilent 1260 LC-MS system by injecting 0.2 μL in order to obtain the peak area. For the test solutions, 80 μL of 100 mM DMSO compound stock solution, per excipient, were dried down into a powder overnight. Once in powder form, 400 μL of the desired excipient was added to the powder and allowed to shake vigorously for four hours. The maximum theoretical concentration for this sample solution was 20,000 μM. After four hours of shaking, the samples were centrifuged for 10 minutes at 3,000 RPM before injecting 0.2 μL on the same Agilent 1260 LC-MS system to obtain the peak area.
Data set [6] addresses Tyk2 (Homo sapiens (Human), UniProt P29597). Nature of the data set: Biochemical JAK and Tyk2 Kinase Assays (LanthaScreen), Tyk2. As to conditions: 10 μM ATP (Km), pIC50 converted to pKi by Cheng-Prusoff; for Ki: read-out: Tyk 2 (pKi) (converted). The protocol: (§1) Assay 1: Biochemical JAK and Tyk2 Kinase Assays
(§2) A panel of four LanthaScreen JAK biochemical assays (JAK1, 2, 3 and Tyk2) were carried in a common kinase reaction buffer (50 mM HEPES, pH 7.5, 0.01% Brij-35, 10 mM MgCl2, and 1 mM EGTA). Recombinant GST-tagged JAK enzymes and a GFP-tagged STAT1 peptide substrate were obtained from Life Technologies.
(§3) Serially or discretely diluted compounds were pre-incubated with each of the four JAK enzymes and the substrate in white 384-well microplates (Corning) at ambient temperature for 1 h. ATP was subsequently added to initiate the kinase reactions in 10 μL total volume, with 1% DMSO. The final enzyme concentrations for JAK1, 2, 3 and Tyk2 are 4.2 nM, 0.1 nM, 1 nM, and 0.25 nM respectively; the corresponding Km ATP concentrations used are 25 μM, 3 μM, 1.6 μM, and 10 μM; while the substrate concentration is 200 nM for all four assays. Kinase reactions were allowed to proceed for 1 hour at ambient temperature before a 10 μL preparation of EDTA (10 mM final concentration) and Tb-anti-pSTAT1 (pTyr701) antibody (Life Technologies, 2 nM final concentration) in TR-FRET dilution buffer (Life Technologies) was added. The plates were allowed to incubate at ambient temperature for 1 h before being read on the EnVision reader (Perkin Elmer). Emission ratio signals (520 nm/495 nm) were recorded and utilized to calculate the percent inhibition values based on DMSO and background controls.
(§4) For dose-response analysis, percent inhibition data were plotted vs. compound concentrations, and IC50 values were determined from a 4-parameter robust fit model with the Prism software (GraphPad Software). Results were expressed as pIC50 (negative logarithm of IC50) and subsequently converted to pKi (negative logarithm of dissociation constant, Ki) using the Cheng-Prusoff equation.

Data set [7] addresses JAK2 (Homo sapiens (Human), UniProt O60674). Nature of the data set: Biochemical JAK and Tyk2 Kinase Assays (LanthaScreen), JAK2. Particulars: 3 μM ATP (Km); pIC50 converted to pKi by Cheng-Prusoff. As to the method: as §1, §2, §3, §4
A short description of data set [8]: Solubility Assay in Organic Excipients. As to conditions: maximum upper limit 20,000 μM; for Solubility in MCT (mg/mL): medium chain triglycerides (MCT).
Procedure: as §5, §6, §7
The nature of data set [9]: Aqueous Solubility Assay. As to conditions: PBS buffer pH 7.4; maximum upper limit 1,000 μM.
The mark [10] stands for this setting: oil or lipid, Solubility in MCT (mg/mL).
Where [11] appears, read: organic solvent or mixture, Solubility in Diisopropyl adipate (mg/mL).
Setting [12] is: organic solvent or mixture, Solubility in PEG400 (mg/mL).
Setting [13] is: organic solvent or mixture, Solubility in Propylene glycol (mg/mL).

Values after ≈ are worked out from the molar mass of the structure shown. Where only a bound is given, the exact number is not on record here.

JAK3, sequence (P52333 whole entry): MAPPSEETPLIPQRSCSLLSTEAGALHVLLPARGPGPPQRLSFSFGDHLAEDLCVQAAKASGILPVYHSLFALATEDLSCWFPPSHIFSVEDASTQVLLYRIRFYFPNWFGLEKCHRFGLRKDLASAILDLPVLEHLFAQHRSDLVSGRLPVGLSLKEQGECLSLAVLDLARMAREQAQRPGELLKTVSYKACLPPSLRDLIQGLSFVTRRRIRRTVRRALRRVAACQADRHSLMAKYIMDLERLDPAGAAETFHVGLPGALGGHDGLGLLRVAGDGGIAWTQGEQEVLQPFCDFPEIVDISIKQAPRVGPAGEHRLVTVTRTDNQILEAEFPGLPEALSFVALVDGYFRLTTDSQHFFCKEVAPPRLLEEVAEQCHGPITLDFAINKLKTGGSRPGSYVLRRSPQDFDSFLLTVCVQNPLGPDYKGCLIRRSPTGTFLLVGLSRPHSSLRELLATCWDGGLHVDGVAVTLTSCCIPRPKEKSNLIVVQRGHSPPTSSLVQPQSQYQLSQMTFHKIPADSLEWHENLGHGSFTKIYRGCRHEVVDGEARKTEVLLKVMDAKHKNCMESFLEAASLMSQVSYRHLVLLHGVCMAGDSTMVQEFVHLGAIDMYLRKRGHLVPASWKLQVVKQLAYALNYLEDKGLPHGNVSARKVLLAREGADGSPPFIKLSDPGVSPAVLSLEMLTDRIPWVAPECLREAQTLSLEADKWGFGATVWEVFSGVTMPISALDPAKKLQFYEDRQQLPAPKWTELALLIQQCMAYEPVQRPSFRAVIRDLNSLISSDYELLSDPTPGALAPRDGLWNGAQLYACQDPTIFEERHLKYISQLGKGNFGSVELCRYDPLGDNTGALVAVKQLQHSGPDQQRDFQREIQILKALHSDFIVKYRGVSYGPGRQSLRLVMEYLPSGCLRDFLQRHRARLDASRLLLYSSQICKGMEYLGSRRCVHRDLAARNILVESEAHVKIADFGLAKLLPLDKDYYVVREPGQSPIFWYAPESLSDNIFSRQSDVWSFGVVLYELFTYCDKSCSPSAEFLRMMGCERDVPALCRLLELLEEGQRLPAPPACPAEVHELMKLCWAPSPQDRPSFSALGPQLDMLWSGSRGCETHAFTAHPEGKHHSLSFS
JAK2, sequence (O60674 whole entry): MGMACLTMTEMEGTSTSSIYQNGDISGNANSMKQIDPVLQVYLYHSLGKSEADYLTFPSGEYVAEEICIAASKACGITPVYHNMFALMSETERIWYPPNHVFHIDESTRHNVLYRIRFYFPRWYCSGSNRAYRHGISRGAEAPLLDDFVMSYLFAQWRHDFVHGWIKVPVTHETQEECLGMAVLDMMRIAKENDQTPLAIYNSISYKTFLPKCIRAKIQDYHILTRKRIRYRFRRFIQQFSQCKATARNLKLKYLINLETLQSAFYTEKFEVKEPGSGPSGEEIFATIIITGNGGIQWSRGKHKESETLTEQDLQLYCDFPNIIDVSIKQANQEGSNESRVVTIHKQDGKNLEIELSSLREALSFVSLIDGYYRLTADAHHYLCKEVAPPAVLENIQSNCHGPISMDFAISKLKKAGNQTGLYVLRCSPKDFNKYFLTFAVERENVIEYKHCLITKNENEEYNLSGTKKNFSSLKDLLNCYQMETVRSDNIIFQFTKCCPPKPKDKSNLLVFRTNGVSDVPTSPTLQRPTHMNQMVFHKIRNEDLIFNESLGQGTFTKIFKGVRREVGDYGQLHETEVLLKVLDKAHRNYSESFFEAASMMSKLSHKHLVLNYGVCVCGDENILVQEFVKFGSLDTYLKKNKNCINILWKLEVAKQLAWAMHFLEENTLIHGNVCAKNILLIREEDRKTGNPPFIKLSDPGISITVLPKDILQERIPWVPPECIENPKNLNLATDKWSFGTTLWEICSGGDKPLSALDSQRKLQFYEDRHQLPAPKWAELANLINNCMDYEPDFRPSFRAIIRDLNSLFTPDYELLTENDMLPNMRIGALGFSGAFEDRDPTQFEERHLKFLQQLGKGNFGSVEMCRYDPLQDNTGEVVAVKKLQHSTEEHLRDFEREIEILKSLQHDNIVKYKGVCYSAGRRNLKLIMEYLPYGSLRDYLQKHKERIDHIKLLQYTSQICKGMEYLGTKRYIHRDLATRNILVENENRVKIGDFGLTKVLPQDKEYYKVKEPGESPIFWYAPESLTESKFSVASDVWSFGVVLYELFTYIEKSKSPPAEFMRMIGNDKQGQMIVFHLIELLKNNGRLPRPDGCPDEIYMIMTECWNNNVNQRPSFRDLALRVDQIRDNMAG
Tyk2, sequence (P29597 whole entry): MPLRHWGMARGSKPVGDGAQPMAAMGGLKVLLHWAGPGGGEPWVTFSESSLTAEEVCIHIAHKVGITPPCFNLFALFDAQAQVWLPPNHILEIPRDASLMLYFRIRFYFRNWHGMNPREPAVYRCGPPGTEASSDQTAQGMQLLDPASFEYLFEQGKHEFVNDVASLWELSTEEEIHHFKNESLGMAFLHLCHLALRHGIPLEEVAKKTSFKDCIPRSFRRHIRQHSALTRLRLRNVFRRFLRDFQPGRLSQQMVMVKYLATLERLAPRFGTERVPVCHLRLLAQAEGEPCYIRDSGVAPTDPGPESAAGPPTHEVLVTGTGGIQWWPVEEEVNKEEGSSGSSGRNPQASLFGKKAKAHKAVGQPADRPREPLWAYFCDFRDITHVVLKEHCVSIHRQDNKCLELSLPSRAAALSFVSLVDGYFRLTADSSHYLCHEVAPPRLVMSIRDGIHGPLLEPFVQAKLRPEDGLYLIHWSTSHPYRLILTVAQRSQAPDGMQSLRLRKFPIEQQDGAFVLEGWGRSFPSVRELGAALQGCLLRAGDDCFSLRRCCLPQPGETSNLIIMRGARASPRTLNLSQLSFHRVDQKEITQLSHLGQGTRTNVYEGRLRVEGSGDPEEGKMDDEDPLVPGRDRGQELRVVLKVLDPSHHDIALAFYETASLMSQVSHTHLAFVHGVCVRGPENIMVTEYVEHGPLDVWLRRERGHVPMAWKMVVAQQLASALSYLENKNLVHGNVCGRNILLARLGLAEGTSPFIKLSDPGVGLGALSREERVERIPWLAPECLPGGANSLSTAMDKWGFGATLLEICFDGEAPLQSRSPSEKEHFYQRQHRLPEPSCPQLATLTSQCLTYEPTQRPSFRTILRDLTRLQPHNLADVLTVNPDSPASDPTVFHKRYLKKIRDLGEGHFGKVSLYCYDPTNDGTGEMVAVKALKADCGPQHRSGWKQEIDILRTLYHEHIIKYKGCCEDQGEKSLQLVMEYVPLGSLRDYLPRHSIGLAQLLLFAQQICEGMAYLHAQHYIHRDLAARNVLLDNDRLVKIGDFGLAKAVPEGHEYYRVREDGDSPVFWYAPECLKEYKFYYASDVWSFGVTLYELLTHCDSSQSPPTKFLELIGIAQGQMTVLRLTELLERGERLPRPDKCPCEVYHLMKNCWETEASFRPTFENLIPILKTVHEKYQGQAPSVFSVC
JAK1, sequence (P23458 whole entry): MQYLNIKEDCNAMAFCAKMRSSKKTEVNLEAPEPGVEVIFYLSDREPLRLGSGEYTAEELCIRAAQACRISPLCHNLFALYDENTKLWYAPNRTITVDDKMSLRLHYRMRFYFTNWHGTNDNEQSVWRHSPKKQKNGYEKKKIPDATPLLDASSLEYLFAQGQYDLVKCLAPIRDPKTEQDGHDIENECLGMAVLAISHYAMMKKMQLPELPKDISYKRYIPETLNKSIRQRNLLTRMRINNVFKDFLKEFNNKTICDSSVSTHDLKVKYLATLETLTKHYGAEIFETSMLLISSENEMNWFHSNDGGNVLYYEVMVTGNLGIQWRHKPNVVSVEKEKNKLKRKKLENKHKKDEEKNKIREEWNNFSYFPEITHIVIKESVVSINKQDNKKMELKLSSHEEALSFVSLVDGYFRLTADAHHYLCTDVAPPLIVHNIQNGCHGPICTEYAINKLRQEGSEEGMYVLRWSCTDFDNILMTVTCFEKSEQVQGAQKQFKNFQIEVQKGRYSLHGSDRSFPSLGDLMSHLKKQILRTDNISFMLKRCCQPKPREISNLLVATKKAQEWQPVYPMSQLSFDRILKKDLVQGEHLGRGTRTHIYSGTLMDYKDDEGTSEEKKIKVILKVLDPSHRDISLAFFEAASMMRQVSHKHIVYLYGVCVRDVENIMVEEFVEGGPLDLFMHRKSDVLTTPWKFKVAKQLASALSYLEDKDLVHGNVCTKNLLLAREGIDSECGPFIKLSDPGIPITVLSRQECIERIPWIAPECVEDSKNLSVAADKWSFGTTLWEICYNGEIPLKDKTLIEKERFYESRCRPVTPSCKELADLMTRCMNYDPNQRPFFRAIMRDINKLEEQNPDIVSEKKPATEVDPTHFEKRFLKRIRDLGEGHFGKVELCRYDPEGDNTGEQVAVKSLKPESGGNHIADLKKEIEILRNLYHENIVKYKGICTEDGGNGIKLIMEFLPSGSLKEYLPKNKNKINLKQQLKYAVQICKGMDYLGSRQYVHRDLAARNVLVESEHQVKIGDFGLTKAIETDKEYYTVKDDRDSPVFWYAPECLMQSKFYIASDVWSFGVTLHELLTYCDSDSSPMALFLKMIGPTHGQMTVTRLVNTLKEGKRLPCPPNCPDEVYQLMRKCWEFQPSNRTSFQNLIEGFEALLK

In the case of `COCCOC(=O)N1[C@@H]2CCC[C@H]1C[C@H](N(C)c1nc(Nc3cc(C)[nH]n3)cc(O[C@@H]3CCOC3)n1)C2` [Compound 22], the “JAK 1 (pKi)” value in data set [1] is “A (A represents a pKi value ≥10 (Ki≤0.1 nM))”. In addition, in [2], the “Cacoverap Kp 10^−6 cm/sec” value is “B (B represents a value between 20×10^−6 and 35×10^−6 cm/sec)”. In addition, in [2], the “Caco Kp 10^−6 cm/sec” value is “B (B represents a value between 15×10^−6 and 30×10^−6 cm/sec)”. Further, the IC50 in [3] was 10 to 31.6 nM. Also, the Ki in [4] and in data set [6] was 0.1 to 1 nM each time. For the same molecule, the solubility at 4 h in data set [5] (setting [10]) is below 5000 µg/mL; in [5] (setting [11]), above 10000 µg/mL; in data set [5] (setting [12]) it was above 10000 µg/mL; in data set [5] (setting [13]) it was above 10000 µg/mL. For the same molecule, in data set [7], the “JAK 2 (pKi)” value is “A (A represents a pKi value ≥10 (Ki≤0.1 nM))”.

Consider `Cc1cc(Nc2cc(C3CCCO3)nc(N(C)[C@@H]3C[C@H]4CCC[C@@H](C3)N4C(=O)OC3CCOCC3)n2)n[nH]1` (stereo partly drawn) [Compound 14, tetrahydro-2H-pyran-4-yl (1R,3s,5S)-3-(methyl(4-((5-methyl-1H-pyrazol-3-yl)amino)-6-(tetrahydrofuran-2-yl)pyrimidin-2-yl)amino)-9-azabicyclo[3.3.1]nonane-9-carboxylate], for which the “JAK 1 (pKi)” value in [1] is reported as “A (A represents a pKi value ≥10 (Ki≤0.1 nM))”. Further, in data set [8], the “Solubility in PEG400 (mg/mL)” value is listed as “A (A represents a value above 10)”; the “Solubility in Diisopropyl adipate (mg/mL)” value is on record as “A (A represents a value above 10)”; the “Solubility in MCT (mg/mL)” value was “B (B represents a value between 5 and 10)”; the “Solubility in Propylene glycol (mg/mL)” value was “A (A represents a value above 10)”. Moreover, in data set [2], the “Cacoverap Kp 10^−6 cm/sec” value is “B (B represents a value between 20×10^−6 and 35×10^−6 cm/sec)”; the “Caco Kp 10^−6 cm/sec” value was “B (B represents a value between 15×10^−6 and 30×10^−6 cm/sec)”. For the same molecule, the “Solubility at PH 7.4 (μmol)” value in data set [9] was “D (D represents a value between 10 and 50)”. Further, in data set [3], the “Tall-1 IL2 pSTAT5 (pIC50)” value was “B (B represents a pIC50 value between 7.5 (included) and 8.0)”. Moreover, the “JAK 3 (pKi)” value in data set [4] was “C (C represents a pKi value between 8 and 9 (Ki between 10 nM and 1 nM))”. For the same molecule, the “Tyk 2 (pKi)” value in [6] is “B (B represents a pKi value between 9 and 10 (Ki between 1 nM and 0.1 nM))”. The “JAK 2 (pKi)” value in [7] is “A (A represents a pKi value ≥10 (Ki≤0.1 nM))”.

Turning to `COCCOC(=O)N1[C@@H]2CCC[C@H]1C[C@H](N(C)c1nc(Nc3cc(C)[nH]n3)cc(C3CCCO3)n1)C2` (stereo partly drawn) [Compound 13, 2-methoxyethyl (1R,3s,5S)-3-(methyl(4-((5-methyl-1H-pyrazol-3-yl)amino)-6-(tetrahydrofuran-2-yl)pyrimidin-2-yl)amino)-9-azabicyclo[3.3.1]nonane-9-carboxylate], in [1], the “JAK 1 (pKi)” value is on record as “A (A represents a pKi value ≥10 (Ki≤0.1 nM))”. Besides, in data set [8], the “Solubility in PEG400 (mg/mL)” value is recorded as “A (A represents a value above 10)”; the “Solubility in Diisopropyl adipate (mg/mL)” value is listed as “A (A represents a value above 10)”; the “Solubility in MCT (mg/mL)” value is “B (B represents a value between 5 and 10)”; the “Solubility in Propylene glycol (mg/mL)” value is “A (A represents a value above 10)”. The “Solubility at PH 7.4 (μmol)” value in data set [9] was “C (C represents a value between 50 and 250)”. Moreover, the “Tall-1 IL2 pSTAT5 (pIC50)” value in [3] is “B (B represents a pIC50 value between 7.5 (included) and 8.0)”. Further, the “JAK 3 (pKi)” value in data set [4] was “C (C represents a pKi value between 8 and 9 (Ki between 10 nM and 1 nM))”. The “Tyk 2 (pKi)” value in [6] is “B (B represents a pKi value between 9 and 10 (Ki between 1 nM and 0.1 nM))”. Moreover, the “JAK 2 (pKi)” value in data set [7] is “A (A represents a pKi value ≥10 (Ki≤0.1 nM))”.

Turning to `Cc1cc(Nc2cc(O[C@H]3CCOC3)nc(N(C)[C@@H]3C[C@H]4CCC[C@@H](C3)N4CC(=O)N3CCCC3)n2)n[nH]1` [Compound 31], the Ki in [1] (read-out: JAK 1 (pKi) (converted)), in [4] and in data set [6] was 0.1 to 1 nM each time. The “Cacoverap Kp 10^−6 cm/sec” value in data set [2] was “C (C represents a value between 12×10^−6 and 20×10^−6 cm/sec)”. In addition, in [2], the “Caco Kp 10^−6 cm/sec” value is reported as “C (C represents a value below 15×10^−6 cm/sec)”. Besides, in [3], the IC50 was at most 10 nM. For the same molecule, the solubility at 4 h in data set [5] (setting [10]), in [5] (setting [11]), in [5] (setting [12]) and in data set [5] (setting [13]) was below 5000 µg/mL each time. In addition, the “JAK 2 (pKi)” value in [7] is recorded as “A (A represents a pKi value ≥10 (Ki≤0.1 nM))”.

Regarding `Cc1cc(Nc2cc(O[C@@H]3CCOC3)nc(N(C)[C@@H]3C[C@H]4CCC[C@@H](C3)N4C(=O)OC3CCOCC3)n2)n[nH]1` [Compound 21], the “JAK 1 (pKi)” value in data set [1] is on record as “A (A represents a pKi value ≥10 (Ki≤0.1 nM))”. Besides, the “Cacoverap Kp 10^−6 cm/sec” value in data set [2] is “B (B represents a value between 20×10^−6 and 35×10^−6 cm/sec)”. Further, the “Caco Kp 10^−6 cm/sec” value in data set [2] is “B (B represents a value between 15×10^−6 and 30×10^−6 cm/sec)”. In addition, the IC50 in data set [3] was 10 to 31.6 nM. For the same molecule, the Ki in [4] and in data set [6] was 0.1 to 1 nM each time. In addition, the solubility at 4 h in data set [5] (setting [10]) was 5000 to 10000 µg/mL (≈ 9.23 to 18.5 mM); in data set [5] (setting [11]), above 10000 µg/mL; in [5] (setting [12]), above 10000 µg/mL; in data set [5] (setting [13]) it was above 10000 µg/mL. Moreover, the “JAK 2 (pKi)” value in [7] is listed as “A (A represents a pKi value ≥10 (Ki≤0.1 nM))”.

As for `Cc1cc(Nc2cc(OC3COC3)nc(N(C)[C@@H]3C[C@H]4CCC[C@@H](C3)N4C(=O)CC3CC3)n2)n[nH]1` [Compound 35], the “JAK 1 (pKi)” value in [1] is on record as “A (A represents a pKi value ≥10 (Ki≤0.1 nM))”. Also, in data set [3], the IC50 is at most 10 nM. Moreover, the Ki in data set [4] was 0.1 to 1 nM. The solubility at 4 h in data set [5] (setting [10]) was below 5000 µg/mL; in data set [5] (setting [11]), 5000 to 10000 µg/mL (≈ 10.4 to 20.8 mM); in data set [5] (setting [12]), 5000 to 10000 µg/mL (≈ 10.4 to 20.8 mM); in [5] (setting [13]), 5000 to 10000 µg/mL (≈ 10.4 to 20.8 mM). In addition, the “Tyk 2 (pKi)” value in [6] is on record as “A (A represents a pKi value ≥10 (Ki≤0.1 nM))”. Also, the “JAK 2 (pKi)” value in [7] is “A (A represents a pKi value ≥10 (Ki≤0.1 nM))”.

The values are drawn from patent US11439641B2, “Pyrimidine JAK inhibitors for the treatment of skin diseases” (THERAVANCE BIOPHARMA R&D IP, LLC, priority 2019, dated 2022).
